Experimental data taken from patent US11970474B2, “Substituted benzodiazoles and use thereof in therapy” (THOMAS HELLEDAYS STIFTELSE FÖR MEDICINSK FORSKNING, priority 2018, dated 2024).

Columns and labels:
[1] = biological target: OGG1 (Homo sapiens (Human), UniProt O15527); assay: In vitro OGG1 activity assay; assay type: biochemical; conditions: 800 pM OGG1 enzyme, 2 nM human APEX1, 10 nM 8-oxoA:C substrate
Method in brief: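 Fluorescence-release assay on a duplex oligonucleotide carrying an OGG1 substrate base beside a fluorophore, quenched from the complementary strand. Excess APEX1 cleaves the abasic site left by base excision, melting the duplex and unquenching the fluorophore. Compounds in DMSO were dispensed before enzyme and substrate, and fluorescein signal was read.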

[2] = test system: SW480; assay: Cell viability assay (resazurin); assay type: cell-based; conditions: Homo sapiens, 120 h, Cancer, Colorectal Adenocarcinoma, five day incubation
Experimental: (§1) A dilution series of compound or vehicle are transferred to 96-well plates. Cells are seeded into the plate (500-10,000 cells/well) in suitable media and incubated for five days in 5% CO2 at 37° C. Thereafter, resazurin (diluted in suitable medium or PBS) are added to a final concentration 10 μg/ml resazurin at 37° C. for 2-4 hours before measuring the fluorescence (Ex544/Em590), essentially as described (Riss, Terry L. et al., “Cell Viability Assays.” In Assay Guidance Manual, ed. G. Sitta Sittampalam, et al. Bethesda (Md.): Eli Lilly & Company and the National Center for Advancing Translational Sciences (2004) http://www.ncbi.nlm.nih.gov/books/NBK144065/).
(§2) The compounds to be tested are nano-dispensed in duplicate in 11 concentrations, directly in 384-well cell plates, with a final DMSO concentration<1%. Cells are seeded in cell plates, pre-dispensed with compounds (200-2500 cells/well in 50 μl). After three or five days culture in 5% CO2, 37° C., resazurin diluted in PBS is added, 10 μl/well, to a final concentration of 10 μg/ml and cells are incubated 2-4 hours before measuring fluorescence (Ex544/Em590), as described (ibid.). Results obtained for selected example compounds described herein on cancer- and non-transformed cell lines are provided in the table below (Table 3) and summarized in FIG. 1. Where indicated, combination indexes was measured with CompuSyn software (www.compusyn.com) by the method of Chou-Talalay (Chou, Ting-Chao., Cancer Research, 70(2), 440-46 (2010)).

[3] = test system: UO31; assay: Cell viability assay (resazurin); assay type: cell-based; conditions: Homo sapiens, UO-31, 120 h, Cancer, Renal carcinoma, five day incubation
Experimental: as §1, §2

[4] = test system: MRC5; assay: Cell viability assay (resazurin); assay type: cell-based; conditions: Homo sapiens, 120 h, Normal, fetal lung fibroblast, five day incubation
Experimental: as §1, §2

[5] = test system: MOLT4; assay: Cell viability assay (resazurin); assay type: cell-based; conditions: Homo sapiens, MOLT-4, 120 h, Cancer, Acute Lymphoblastic Leukemia, five day incubation
Experimental: as §1, §2

[6] = test system: VH10; assay: Cell viability assay (resazurin); assay type: cell-based; conditions: 120 h, Normal, fibroblast, five day incubation
Experimental: as §1, §2

[7] = test system: H460; assay: Cell viability assay (resazurin); assay type: cell-based; conditions: Homo sapiens, NCI-H460, 120 h, Cancer, large cell lung carcinoma, five day incubation
Experimental: as §1, §2

[8] = test system: KG1a; assay: Cell viability assay (resazurin); assay type: cell-based; conditions: Homo sapiens, KG-1a, 120 h, Cancer, Acute Myelogenous Leukemia, five day incubation
Experimental: as §1, §2

[9] = test system: M059J; assay: Cell viability assay (resazurin); assay type: cell-based; conditions: Homo sapiens, 120 h, Cancer, Malignant Glioblastoma, five day incubation
Experimental: as §1, §2

[10] = test system: MV4-11; assay: Cell viability assay (resazurin); assay type: cell-based; conditions: Homo sapiens, 120 h, Cancer, acute monocytic leukemia, five day incubation
Experimental: as §1, §2

[11] = test system: ACHN; assay: Cell viability assay (resazurin); assay type: cell-based; conditions: Homo sapiens, 120 h, Cancer, Renal Cell Adenocarcinoma, five day incubation
Experimental: as §1, §2

[12] = test system: Raji; assay: Cell viability assay (resazurin); assay type: cell-based; conditions: Homo sapiens, 120 h, Cancer, Burkitt's Lymphoma, five day incubation
Experimental: as §1, §2

[13] = test system: 786-0; assay: Cell viability assay (resazurin); assay type: cell-based; conditions: Homo sapiens, 120 h, Cancer, Renal Cell Adenocarcinoma, five day incubation
Experimental: as §1, §2

[14] = test system: PL-21; assay: Cell viability assay (resazurin); assay type: cell-based; conditions: 120 h, Cancer, acute myeloid leukemia, five day incubation
Experimental: as §1, §2

[15] = test system: BJ Tert; assay: Cell viability assay (resazurin); assay type: cell-based; conditions: 120 h, Normal, immortalized fibroblast, five day incubation
Experimental: as §1, §2

[16] = test system: PC3; assay: Cell viability assay (resazurin); assay type: cell-based; conditions: Homo sapiens, PC-3, 120 h, Cancer, Prostate adenocarcinoma, five day incubation
Experimental: as §1, §2

[17] = test system: U2OS; assay: Cell viability assay (resazurin); assay type: cell-based; conditions: Homo sapiens, 120 h, Cancer, Osteosarcoma, five day incubation
Experimental: as §1, §2

[18] = test system: LCL#2; assay: Cell viability assay (resazurin); assay type: cell-based; conditions: 120 h, Normal, Epstein-Barr-virus-transformed lymphoblastoid cell lines, five day incubation
Experimental: as §1, §2

[19] = test system: BJ Ras; assay: Cell viability assay (resazurin); assay type: cell-based; conditions: 120 h, Cancer, Transformed fibroblast, five day incubation
Experimental: as §1, §2

[20] = test system: Jurkat; assay: Cell viability assay (resazurin); assay type: cell-based; conditions: Homo sapiens, 120 h, Cancer, Acute lymphoblastic leukemia, five day incubation
Experimental: as §1, §2

[21] = test system: A3; assay: Cell viability assay (resazurin); assay type: cell-based; conditions: 120 h, Cancer, Acute lymphoblastic leukemia, five day incubation
Experimental: as §1, §2

[22] = test system: A549; assay: Cell viability assay (resazurin); assay type: cell-based; conditions: Homo sapiens, 120 h, Cancer, Lung carcinoma, five day incubation
Experimental: as §1, §2

[23] = test system: HCT116; assay: Cell viability assay (resazurin); assay type: cell-based; conditions: Homo sapiens, HCT-116, 120 h, Cancer, Colorectal Carcinoma, five day incubation
Experimental: as §1, §2

[24] = test system: A498; assay: Cell viability assay (resazurin); assay type: cell-based; conditions: Homo sapiens, 120 h, Cancer, Renal carcinoma, five day incubation
Experimental: as §1, §2

[25] = test system: M059K; assay: Cell viability assay (resazurin); assay type: cell-based; conditions: 120 h, Cancer, Malignant Glioblastoma, five day incubation
Experimental: as §1, §2

[26] = test system: DU145; assay: Cell viability assay (resazurin); assay type: cell-based; conditions: Homo sapiens, DU-145, 120 h, Cancer, Prostate carcinoma, five day incubation
Experimental: as §1, §2

[27] = test system: RFX393; assay: Cell viability assay (resazurin); assay type: cell-based; conditions: 120 h, Cancer, Renal cancer cell lines, five day incubation
Experimental: as §1, §2

Chain of OGG1 (O15527 whole entry): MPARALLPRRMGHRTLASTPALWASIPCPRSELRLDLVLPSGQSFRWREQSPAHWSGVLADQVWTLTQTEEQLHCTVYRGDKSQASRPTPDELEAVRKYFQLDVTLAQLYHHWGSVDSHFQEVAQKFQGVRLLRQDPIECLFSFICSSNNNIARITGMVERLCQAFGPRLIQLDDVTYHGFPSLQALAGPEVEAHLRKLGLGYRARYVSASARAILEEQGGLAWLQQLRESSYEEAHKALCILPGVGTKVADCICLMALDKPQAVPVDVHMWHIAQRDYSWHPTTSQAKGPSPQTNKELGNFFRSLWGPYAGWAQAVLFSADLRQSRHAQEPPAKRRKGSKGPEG

Compound	IC50 [1]	EC50 [2]	EC50 [3]	EC50 [4]	EC50 [5]	EC50 [6]	EC50 [7]	EC50 [8]	EC50 [9]	EC50 [10]	EC50 [11]	EC50 [12]	EC50 [13]	EC50 [14]	EC50 [15]	EC50 [16]	EC50 [17]	EC50 [18]	EC50 [19]	EC50 [20]	further results
O=C(Nc1ccc(I)cc1)N1CCC(n2c(=O)[nH]c3c(Br)cccc32)CC1 [Example 13, 4-(4-Bromo-2-oxo-2,3-dihydro-1H-1,3-benzodiazol-1-yl)-N-(4-iodophenyl)piperidine-1-carboxamide]	0.359 µM	33 µM	2.9 µM	75 µM	15 µM	32 µM	10 µM	16 µM	26 µM	9.4 µM	2.3 µM	25 µM	30 µM	15 µM	34 µM	35 µM	20 µM	25 µM	4.8 µM	13 µM	EC50 [21]: 11 µM; EC50 [22]: 12 µM; EC50 [23]: 18 µM; EC50 [24]: 29 µM; EC50 [25]: 20 µM; EC50 [26]: 13 µM; EC50 [27]: 20 µM
O=C(Nc1ccc(Cl)c(Cl)c1)N1CCC(n2c(=O)[nH]c3c(-c4ccc(CO)nc4)cccc32)CC1 [Example 28, N-(3,4-dichlorophenyl)-4-{4-[6-(hydroxymethyl)pyridin-3-yl]-2-oxo-2,3-dihydro-1H-1,3-benzodiazol-1-yl}piperidine-1-carboxamide]	0.766 µM	20 µM	7.1 µM	21 µM	13 µM	21 µM	14 µM	18 µM	21 µM	6.5 µM	8.5 µM	20 µM	15 µM	10 µM	24 µM	19 µM	16 µM	41 µM	15 µM	14 µM	EC50 [21]: 7.9 µM; EC50 [22]: 11 µM; EC50 [23]: 15 µM; EC50 [24]: 21 µM; EC50 [25]: 19 µM; EC50 [26]: 11 µM; EC50 [27]: 14 µM
Cc1cc(NC(=O)N2CCC(n3c(=O)[nH]c4c(Br)cccc43)CC2)ccc1I [Example 50, 4-(4-Bromo-2-oxo-2,3-dihydro-1H-1,3-benzodiazol-1-yl)-N-(4-iodo-3-methylphenyl)piperidine-1-carboxamide]	0.149 µM	30 µM	3.2 µM	47 µM	17 µM	48 µM	17 µM	19 µM	29 µM	9.6 µM	2.8 µM	23 µM	33 µM	18 µM	31 µM	29 µM	25 µM	32 µM	14 µM	15 µM	EC50 [21]: 9.8 µM; EC50 [22]: 8.5 µM; EC50 [23]: 29 µM; EC50 [24]: 35 µM; EC50 [25]: 27 µM; EC50 [26]: 3.1 µM; EC50 [27]: 12 µM
